Patent US4957735A, “Target-sensitive immunoliposomes- preparation and characterization” (The University of Tennessee Research Corporation, priority 1987, dated 1990)
In brackets after ≈: the same amount, converted by molar mass. Like-named read-outs stand apart in the source and are kept apart here.

Columns and labels:
[1] = test system: HSV; assay: Efficacy in inhibiting HSV replication in L929 cells (virus yield, TCID50 assay); type: cell-based, HSV-1, HF strain; details: HSV-infected L929 cells; for free drug amount required for comparable antiviral activity relative to TS immunoliposome encapsulated AraC: FIG. 7B
Protocol: The HF strain of HSV-1 was propagated on Hep-2 cell. After 3 cycles of freeze and thawing of the virus infected cells, the virus released were isolated from the supernatant after palleting the cell debris at 1000 g for 10 min. These virus stock contained 1×10^8 pfu/ml and were stored in -70° C.
(§1) Inhibitors were present throughout the assay. […] At 6 hr. […] At 42 hr.

[2] = L929 cell toxicity assay ([3H]dT incorporation); details: mouse, l929 cells
Protocol: (§2) As a measure of cytotoxicity, the drug concentration required to inhibit 50% of [^3 H]dT incorporation 42 hr. later (CD50) was determined.
(§3) PI. […] At 42 hr. PI, the supernatant of the L929 cells was collected and titered for the virus yield. The toxicity of the drug on the general cell population was monitored by [^3 H]dT incorporation since both AraC and ACV inhibit the DNA synthesis.
(§4) L929 cells at 75-80% confluency in 96-well Coster plates were infected with 0.1 multiplicity of infection (MOI) in McCoy's medium with 2% CS for 1 hr. Then the infection medium was removed and replaced with McCoy's medium containing 10% CS. For the target sensitivity assay (see below), L929 cells were grown in 35-mm six-well Linbro plates and a similar procedure was used to infect the L929 cell with various concentration of HSV, ranging from 0-10 MOI.
(§5) HSV-infected L929 cells in 7-mm 96-well plates were used in these experiments and each experiment was performed in quadruplicate. At 3 hr. post infection (PI), the growth medium of infected or uninfected cell was removed, and replaced with 180 micro-l of either liposome-entrapped or free drug AraC or ACV containing medium.
(§6) In the experiments where nucleoside-transport inhibitors were used, the inhibitors were added at 30 min. prior to the AraC-entrapped liposome addition. Inhibitors were present throughout the assay. For the control experiments, the infection medium was replaced with the fresh growth medium. At 6 hr. PI, 1 micro-Ci of [^3 H]dT was added in 20 micro-l for cytotoxicity assay (see below). Then incubation continued at 37° C. in a CO2 incubator. At 42 hr. PI, the growth medium was removed and immediately titered for the virus yield using the 50% tissue culture infective dose (TCID50) assay using Vero cells. The TCID50 assay was done in quadruplicates and the results were expressed in average ±S.D.
(§7) Cytotoxicity of the L929 cells was determined by 20 labeling the cells at 6 hr. PI with [3H]dT. At 42 hr. PI, the growth medium was removed and the cells were washed with cold PBS for a total of three times. Then the DNA was precipitated with 5% trichloroacetic acid (TCA) at 4° C. After two cycles of 2 hr. incubation with fresh TCA, the precipitates at the bottom of the plates were washed one more time with 200 micro-l of fresh TCA. Finally, the precipitates were redissolved and dequenched with 1N NaOH overnight. The solubilized TCA precipitates were counted for tritium radioactivity. Data presented were the average ±S.D. of the quadruplicates.

[3] = test system: L929 cells; assay: L929 cell toxicity assay ([3H]dT incorporation); details: for CD50 (drug concentration required to inhibit 50% of [3H]dT incorporation): 42 hr.
Protocol: as §2, §3, §4, §5, §6, §7

[4] = test system: HSV; assay: Repression of TS immunoliposome mediated therapeutic effect by nucleoside transport inhibitors (HSV yield, TCID50 assay); type: cell-based, HSV-1, HF strain; details: for repression of therapeutic effect of AraC-encapsulated TS immunoliposomes: Table II; for Log[HSV], with liposome: 0.1 microg/ml AraC in TS immunoliposomes
Protocol: While not wishing to be bound by theory, it is believed that the surface deposition of TS immunoliposomes was followed by transport of liposome-released drugs into the cytosol via cellular nucleoside transporters. To test this hypothesis, the effect on virus replication of two nucleoside transport inhibitors, p-nitrothiobenzylinosine, and dipyridamole were investigated.
PI was determined using the TCID50 assay described in Example 14
^b HSV infected cells were treated with or without 0.1 microg/ml
(ug/ml) of AraC encapsulated in the TS immunoliposomes.
as §1

[5] = biological target: nucleoside transport system; details: cited from earlier work

With `Nc1nc2c(ncn2COCCO)c(=O)[nH]1` [ACV, acycloguanosine] the EC50 ([1]; Human alphaherpesvirus 1, 42 hr. PI, FIG. 8, read-out: 50% effective dose (ED50), virus inhibition) was 1.1 µg/mL (≈ 4.88 µM), the CC50 at 42 h [2] was 0.0125 µg/mL (≈ 0.0555 µM) and the “CD50 (drug concentration required to inhibit 50% of [3H]dT incorporation)” value [3] was 12.5 ng/mL.
With `Nc1ccn([C@@H]2O[C@H](CO)[C@@H](O)[C@@H]2O)c(=O)n1` [AraC, cytosine-beta-D-arabinoside] the “inhibition of virus replication” value [1] was “only a marginal effect on virus replication”, the “free drug amount required for comparable antiviral activity relative to TS immunoliposome encapsulated AraC” value [1] was “at least 1000 fold” and the “free drug amount required for comparable antiviral activity relative to TS immunoliposome encapsulated AraC” value ([1]; listed as free AraC) was no less than 1000 fold. The CC50 at 42 h [2] was 0.0003 µg/mL (≈ 0.00123 µM), the “CD50 (drug concentration required to inhibit 50% of [3H]dT incorporation)” value [3] was 0.3 ng/mL and the “cytotoxicity” value ([3]; HSV-infected / host L929 cells) was “cytotoxic to infected cells”. The “cytotoxicity to uninfected cells” value ([3]; uninfected control cells, [3H]dT incorporation) was “cytotoxic”.
In the case of `OCCN(CCO)c1nc(N2CCCCC2)c2nc(N(CCO)CCO)nc(N3CCCCC3)c2n1` [Dipyridamole], the “repression of therapeutic effect of AraC-encapsulated TS immunoliposomes” value [4] is reported as “concentration dependent”, the “Log[HSV] Diff. (with vs without liposome)” value ([4]; inhibitor 1.4 uM) is reported as 1.6 and the “Log[HSV], without liposome” value ([4]; inhibitor 1.4 uM) is reported as 5.3 ± 0.3. The “Log[HSV], with liposome” value ([4]; inhibitor 1.4 uM) was 3.7 ± 0.3, the “Log[HSV] Diff. (with vs without liposome)” value ([4]; inhibitor 11.1 uM) was 1.4 and the “Log[HSV], without liposome” value ([4]; inhibitor 11.1 uM) was 4.8 ± 0.3. The “Log[HSV], with liposome” value ([4]; inhibitor 11.1 uM) was 3.4 ± 0.4 and the Ki ([5]; noncompetitive inhibitor) was 3000 nM.
For `O=[N+]([O-])c1ccc(CSc2ncnc3c2ncn3[C@@H]2O[C@H](CO)[C@@H](O)[C@H]2O)cc1` [p-Nitrothiobenzylinosine, S-(p-Nitrobenzyl)-6-thioinosine], the “repression of therapeutic effect of AraC-encapsulated TS immunoliposomes” value [4] was “concentration dependent”, the “Log[HSV] Diff. (with vs without liposome)” value ([4]; inhibitor 12.5 nM) was 2.3 and the “Log[HSV], without liposome” value ([4]; inhibitor 12.5 nM) was 5.1 ± 0.9. For the same compound, the “Log[HSV], with liposome” value ([4]; inhibitor 12.5 nM) was 2.8 ± 0.8, the “Log[HSV] Diff. (with vs without liposome)” value ([4]; inhibitor 100.0 nM) was 0.8 and the “Log[HSV], without liposome” value ([4]; inhibitor 100.0 nM) was 4.6 ± 0.2. The “Log[HSV], with liposome” value ([4]; inhibitor 100.0 nM) was 3.8 ± 0.4 and the Ki ([5]; competitive inhibitor) was 1 nM.
